Experimental data reported in patent US8039219B2, “Method of using GPR35 to identify metabolic-stabilizing compounds” (Arena Pharmaceuticals, Inc., priority 2004, dated 2011).

Key:
[1] = biological target: GPR35 (Homo sapiens, UniProt Q9HC97); details: reported by Wang et al., J. Biol. Chem. 281:22021-22028 (2006); cited from earlier work
[2] = system: mouse GPR35 expression in 3T3-L1 adipocytes; test: TaqMan analysis of mouse GPR35 expression in 3T3-L1 adipocytes after treatments; type: cell-based; details: 10 μM Linoleic Acid, 1 and 24 hours, serum free media; control untreated adipocytes at time 0; FIG. 8
Protocol: GPR35 expression in 3T3-L1 adipocytes was then analyzed after certain treatments, such as treatment with linoleic acid. Briefly, 3T3-L1 cells were differentiated into adipocytes using a standardized protocol found in Patel Y M, Lane M D. (Role of calpain in adipocyte differentiation. Proc. Natl. Acad. Sci. USA 96:1279-1284, 1999). Cells were then treated for 1 and 24 hours in serum free media containing either 50 nM insulin (Sigma Cat # I-1882), 10 μM Linoleic Acid (Calbiochem Cat # 436305 lot #B52793), 50 pg/ml IL-1Beta (R&D Systems Cat # 401-ML lot #BN034012), 0.5 ng/mL TNF-alpha (R&D Systems Cat# 410-MT lot # CS083051). Control was untreated 3T3-L1 adipocytes at time 0. RNA was then isolated using Trizol method (Invitrogen Cat # 15596-018). cDNA was made using Biorad iScript cDNA Synthesis Kit.
A 1× TaqMan supermix was made in a 5 mL polypropylene tube. Forward and Reverse primers were added to give a 300 nM final concentration; appropriate amount of probe was added to give a final concentration of 200 nM. Total volume per well was 20 μL. 2 μL was cDNA, while the other 18 μL was TaqMan supermix and nuclease-free water. The sequence for primers and the probe were: […]
The thermo cycler conditions used were: (1) initial steps: hold for 2 minutes at 50° C., then hold for 10 minutes at 95° C. […]

Chain of GPR35 (Q9HC97 whole entry, species assumed): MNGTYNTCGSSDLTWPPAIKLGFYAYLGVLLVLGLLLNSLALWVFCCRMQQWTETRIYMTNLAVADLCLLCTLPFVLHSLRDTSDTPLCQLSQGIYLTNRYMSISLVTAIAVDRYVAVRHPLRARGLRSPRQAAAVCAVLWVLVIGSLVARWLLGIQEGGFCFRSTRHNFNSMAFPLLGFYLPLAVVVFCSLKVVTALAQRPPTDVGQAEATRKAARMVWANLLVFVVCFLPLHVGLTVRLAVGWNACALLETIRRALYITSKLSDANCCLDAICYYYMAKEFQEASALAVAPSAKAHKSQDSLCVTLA

Structure (SMILES) | ligand for GPR35 [1] | GPR35 expression in 3T3-L1 adipocytes [2]
O=C(O)c1cc(=O)c2ccccc2[nH]1 [kynurenic acid] | ligand for GPR35 | 
CCCCC/C=C\C/C=C\CCCCCCCC(=O)O [linoleic acid] |  | significantly increased
